Values of other authors in US8106000B2, “Colonic delivery of adsorbents” (Da Volterra, priority 2005, dated 2012).

Conditions: oral doses 1 to […]

SMILES: O=C(O)c1cn(C2CC2)c2cc(N3CCNCC3)c(F)cc2c1=O [ciprofloxacin]
- expected residual ciprofloxacin in feces (% of oral doses): ≤ 25%
